Laboratory results from patent publication US6011135A, “Triazine thiol derivative having a perfluoro group, method for producing same and use of same” (Iwate University, priority 1997, dated 2000).

Assays:
Assay type in all cases: physicochemical
[1] = Solubility of 6-perfluoro alkylamino-1,3,5-triazine-2,4-dithiol to various solvents; design: key to Solubility, Toluene: X: did not solved; Δ: slightly solved (1 wt % or less); .largecircle.: sufficiently solved (1-10 wt %); .circleincircle.: excellently solved (10 wt % or more)
[2] = Dissociation constants (pKa1, pKa2), yardstick for reactivity; conditions: dissociation constant
Source text: (§1) In Table 5 below, there is shown the effectiveness of 6-perfluoro alkylamino-1,3,5-triazine-2,4-dithiol of examples of the present invention by comparing the dissociation constants, oxidation potential and critical micelle concentration with those of the comparative example.
(§2) With respect to the dissociation constants (pKa1, pKa2), which may function as a yardstick for reactivity, all the examples of the present invention have lower dissociation constants than the comparative example. Accordingly, it is understood that the triazine thiol derivative having a perfluoro group of the present invention has an excellent reactivity. With regard to the oxidation potential which functions as a yardstick for easiness of tribological polymerization and electrolytic polymerization, each example has a lower oxidation potential than the comparative example. This means that an oxidative polymerization of the triazine thiol derivative having a perfluoro group according to the present invention is easier than that of the comparative example. Further, the critical micelle concentration of every example is lower than that of the comparative example. This means that micelle formation is easier in the examples and thus, the triazine thiol derivative having a perfluoro group according to the present invention has an excellent surface activity.

[3] = Oxidation potential, yardstick for easiness of tribological and electrolytic polymerization
Source text: as §1, §2

[4] = Critical micelle concentration (surface activity)
Source text: as §1, §2

| SMILES | Solubility, MEK [1] | Solubility, Acetic ether [1] | Solubility, Ethanol [1] | Solubility, Toluene [1] | Solubility, Water [1] | pKa1 [2] | pKa2 [2] | Oxidation potential [3] [V vs. Ag^+ /Ag] | Critical micelle concentration [4] [mol/L] |
| --- | --- | --- | --- | --- | --- | --- | --- | --- | --- |
| FC(F)(F)C(F)(F)C(F)(F)C(F)(F)C(F)(F)C(F)(F)C(F)(F)c1ccc(Nc2nc(S)nc(S)n2)cc1 [Comparative example, reference compound] | Δ (slightly solved (1 wt % or less)) | Δ (slightly solved (1 wt % or less)) | Δ (slightly solved (1 wt % or less)) | X | Δ (slightly solved (1 wt % or less)) | 8.3 | 10.7 | 0.90 | 0.022 |
| FC(F)(F)C(F)(F)C(F)(F)C(F)(F)C(F)(F)C(F)(F)C(F)(F)CNc1nc(S)nc(S)n1 [Example 11] | .largecircle. (sufficiently solved (1-10 wt %)) | Δ (slightly solved (1 wt % or less)) | .largecircle. (sufficiently solved (1-10 wt %)) | Δ (slightly solved (1 wt % or less)) | .largecircle. (sufficiently solved (1-10 wt %)) | 8.1 | 10.3 | 0.62 | 0.0021 |
| CCCCN(CC(F)(F)C(F)(F)C(F)(F)C(F)(F)C(F)(F)C(F)(F)C(F)(F)F)c1nc(S)nc(S)n1 [Example 12] | .circleincircle. (excellently solved (10 wt % or more)) | .largecircle. (sufficiently solved (1-10 wt %)) | .largecircle. (sufficiently solved (1-10 wt %)) | .largecircle. (sufficiently solved (1-10 wt %)) | .largecircle. (sufficiently solved (1-10 wt %)) | 7.4 | 10.4 | 0.46 | 2.1e-05 |
| FC(F)(F)C(F)(F)C(F)(F)C(F)(F)C(F)(F)C(F)(F)C(F)(F)CN(c1nc(S)nc(S)n1)C1CCCCC1 [Example 13] | .circleincircle. (excellently solved (10 wt % or more)) | .largecircle. (sufficiently solved (1-10 wt %)) | .largecircle. (sufficiently solved (1-10 wt %)) | .largecircle. (sufficiently solved (1-10 wt %)) | .largecircle. (sufficiently solved (1-10 wt %)) | 6.2 | 10.6 | 0.78 | 5.6e-05 |
| CCCCN(CC(F)(F)C(F)(F)C(F)(F)C(F)(F)C(F)(F)C(F)(F)C(F)(F)C(F)(F)C(F)(F)C(F)(F)F)c1nc(S)nc(S)n1 [Example 14] | .circleincircle. (excellently solved (10 wt % or more)) | .largecircle. (sufficiently solved (1-10 wt %)) | .largecircle. (sufficiently solved (1-10 wt %)) | .largecircle. (sufficiently solved (1-10 wt %)) | .largecircle. (sufficiently solved (1-10 wt %)) | 7.5 | 9.8 | 0.56 | 1.1e-05 |
